Data set [1] in a line: Peripheral muscarinolytic side effect (saliva/tear secretion, oxotremorine) relative to spasmolytic activity. The note with it: mouse, in vivo, ip. On the procedure: (§1) The choice of the dosage depends on the nature and the severity of the disease.
(§2) 3. Muscarinolytic "side effects".
(§3) The compounds to be tested and oxotremorine were administered intraperitoneally to femal DAP-mice at the same instant or, in case of analgesia, also 30 minutes previously.
(§4) Inhibition of the tremors and/or analgesia caused by oxotremorine is a measure of the central muscarinolytic activity, while the inhibition of saliva secretion or tear secretion reflects the peripheral muscarinolytic activity.

Data set [2] is described as follows: Central muscarinolytic side effect (tremors/analgesia, oxotremorine) relative to spasmolytic activity. The note with it: mouse, in vivo, ip. On the procedure:
as §1, §2, §3, §4

For data set [3], the system named is ileum of the guinea pig. The data set can be described thus: Spasmolytic activity in vivo (effect on the ileum of the guinea pig, contractions induced with intravenous carbachol). To be noted: atropine = 1. On the procedure:
Effect on the ileum of the guinea pig.
The spasmolytic effect of the compounds was tested on the ilea of urethane-narcotised, empty-stomach guinea pigs of approximately 500 g (Zwagemakers, Arzn. Forsch. 30, 1517 (1980). Contractions of the intestine were induced every 7 minutes with intravenously administered carbachol in a dose of 5 μg per kg of body weight. After constant response had been reached, the test compounds were administered 3 minutes before the next dose of carbachol was given and the protecting effect was studied for 52 minutes. The contractions after administration of the test compounds were expressed as a percentage of the average of two control values. The average percentage of inhibition was calculated throughout the 52 minutes from the region under the curve. The maximum percentage of inhibition and the duration of the spasmolytic effect were also determined. The spasmolytic effect was considered to be finished when two successive contractions were 20% or less of the control value.

With `CCN(CCCC(=O)C1CCCCC1)C(C)Cc1ccc(OC)cc1` (stereo not shown) [Secoverine], the selectivity ratio in data set [1] stood at 50; in data set [2] it was 2. In data set [3], this compound displayed a Spasm. activ. of 0.6.

The compound `CN1[C@@H]2CC[C@H]1C[C@@H](OC(=O)C(CO)c1ccccc1)C2` (stereo partly shown) [Atropine] had a Spasm. activ. in data set [3] of 1.

The record behind these values is patent US4889849A, “Spasmolytically active tertiary amine derivatives” (Duphar International Research B.V., priority 1984, dated 1989).
